Here are results for one compound from patent US20090028920A1, “UROLOGICAL DEVICES INCORPORATING COLLAGEN INHIBITORS” (Wake Forest University Health Sciences, priority 2006, published 2009).

One series concerns ureter and urethra. The conditions noted are these: orally administered and locally injected; cited from earlier work.
For series [1] the following is noted: rat, in vivo. On the procedure: HF Analysis in Local Tissues and Serum (in Rat): The tissue specimens were morcellated, incubated for 24 hours in 40 mL of PBS, centrifuged, and a sample was taken for HF concentration analysis via spectrophotometry. Blood was also drawn (1 mL) from the heart post-mortem, added to 5 mL of PBS, centrifuged, and the serum analyzed for HF concentration via spectrophotometry.

The nature of series [2]: Drug release study of coated stents in PBS (UV spectroscopy at 243 nm). The series is classed as physicochemical. The conditions noted are these: approx. 3 cm coated silicone stents, room temperature, 24-hour intervals. On the procedure:
Drug release studies were then performed to determine the amount of halofuginone released by the coated stents, and the timing of drug release. Stents approximately 3 cm in length were coated with halofuginone using our proprietary technique. These stents were then placed in PBS solution at room temperature for 24-hour intervals. After each 24-hour interval, the stents were placed in a new PBS solution, and the previous solution was analyzed for halofuginone concentration using UV spectroscopy (absorption at 243 nm). This process was continued daily until the amount of halofuginone in the PBS dropped to immeasurable levels.

The conditions of series [3]: oral doses of up to 3.5 mg/day; cited from earlier work.

`O=C(CC1NCCCC1O)Cn1cnc2cc(Br)c(Cl)cc2c1=O` (centres unmarked) [halofuginone, 7-bromo-6-chloro-3-[3-(3-hydroxy-2-piperidinyl)-2-oxopropyl]-4(3H)]: the “collagen deposition and stricture formation” value with ureter and urethra was “prevent collagen deposition and stricture formation”. Also, the “difference between HF levels in serum vs penile tissue” value in series [1] is on record as “almost a ten-fold difference”. In series [2], the “duration of sustained release of halofuginone from the stents” value is on record as “approximately 4 days” and the release profile entry is reported as “large burst release the first 24 hours”. The tolerability entry in series [3] is reported as “minimal ill effects”.
